Measured values reported in patent US10434095B2, “3-(1-oxo-4-((4-((3-oxomorpholino)methyl)benzyl)oxy)isoindolin-2-yl)piperidine-2,6-dione and isotopologues thereof” (Celgene Corporation, priority 2017, dated 2019).

Tests used:
[1] = test system: primary human CD19+ B cells differentiating toward the plasma cell lineage; assay: B cell differentiation assay, cell phenotyping by flow cytometry (CD20/CD38); assay type: cell-based; conditions: in vitro primary human B cell differentiation culture; FIG. 1
Method: The effect of Compound I-S on the expression of transcription factors controlling plasma cell differentiation and immunoglobulin production using an in-vitro human B-cell differentiation culture system was invesitaged according to the procedures below:
Twenty-five milliliters human buffy coat were placed into each of two 50-mL conical tubes and 25 mL sterile Hank's buffered saline solution (HBSS) were added to each conical tube. The tubes were gently mixed by inverting. Fifteen milliliters of room temperature Ficoll-Paque Plus (GE Healthcare; Cat#17-1440-02) were placed into each of four 50-mL conical tubes. Then 25 mL of the buffy coat/HBSS mixture were layered gently and slowly on top of the Ficoll. […] The cell pellet was resuspended in 20 mL of B cell medium (Iscove's modified Dulbecco's medium+10% premium fetal bovine serum [PFBS], 1% penicillin/streptomycin [P/S], and 5 μg/mL human insulin), pipetted through a 30 micron filter, and an aliquot was counted using the cell counter.
Aliquots of purified PBMCs (2×10^8 cells) were placed in tubes, centrifuged at 1200 rpm for 5 minutes, and then supernatants were discarded. […] The enriched CD19^+ cells were resuspended in 5 mL of B cell medium and counted on the cell counter. […]
(§1) Cells were harvested and counted on the cell counter, an aliquot was removed for flow analysis, and the remaining cells were washed with phosphate buffered saline (PBS). […]

[2] = test system: BCL-6; assay: Gene expression (RT-PCR) in differentiated B cells; assay type: cell-based, human; conditions: Day 7 differentiated B cells, normalized to 0.1% DMSO; FIG. 3
Method: (§2) Fresh B cell cocktail was prepared by adding 50 μg/mL of human transferrin to B cell medium (Iscove's medium with 10% PFBS, 1% P/S, and 5 μg/mL human insulin). The required volume of medium needed for the experiment was filtered through a 0.22 micron filter. Add B cell differentiation cocktail (final concentration): recombinant human Interleukin (IL)-2 (20 U/mL), IL-10 (50 ng/mL), IL-15 (10 ng/mL), CD40 Ligand/TNFSF5/histidine-tagged (50 ng/mL), polyHistidine mouse IgG1 antibody (5 μg/mL), and ODN 2006-Human TLR9 ligand (10 μg/mL) to cells. Five milliliters (1×10^5/mL) of CD19^+ B cells were added to each well of a 6-well flat-bottom plate (final cell count=5×10^5/well). Five microliters of a 1× solution of compound or DMSO was added to each test well (0.1% final concentration of DMSO) and incubated at 37{dot over (◯)}° C. for 4 days.
(§3) Cells were harvested and counted on the cell counter, an aliquot was removed for flow analysis, and the remaining cells were washed with phosphate buffered saline (PBS). Fresh B cell cocktail was prepared by adding 1 μg/ml of human transferrin to B cell medium (Iscove's medium with 10% PFBS, 1% P/S, and 5 μg/mL human insulin). The required volume of medium needed for the experiment was filtered through a 0.22 micron filter. B cell differentiation cocktail (final concentration) consisting of: recombinant human IL-2 (20 U/mL), IL-10 (50 ng/mL), IL-15 (10 ng/mL), and IL-6 (50 ng/mL) was added to cells. Fresh B cell cocktail was added to cells. Cells were transferred back to the original wells and the volume was adjusted to 5 mL. Five microliters of a 1× solution of compound or DMSO was added to each test well (0.1% final DMSO) and incubated at 37{dot over (◯)}° C. for 3 days.
(§4) On Day 4 and Day 7 cells were harvested and counted on the cell counter. A portion of the cells were then removed for flow analysis and the remaining cells were lysed with RLT buffer and stored at −80° C. for RNA extraction and gene expression. Supernatants were divided into aliquots and frozen at −20° C. for immunoglobulin assays.
(§5) Differentiated B cells (see B Cell Differentiation Assay above) were harvested for total ribonucleic acid (RNA) preparation with a Qiacube RNA extraction instrument (Qiagen, Valencia, Calif.) using QIAGEN RNeasy mini spin-column kits (Catalog #74104). Purified RNA was reverse transcribed into cDNA with thermal cycler (MJ Research, Inc., St. Bruno, Quebec, Canada) using a reverse-transcriptase kit (Applied Biosystems). The gene expression assay was carried out using 7500 real time polymerase chain reaction (RT-PCR) system (Applied Biosystems) in triplicate. A glyceraldehyde 3-phosphate dehydrogenase gene expression assay control was run for each sample and used as a normalization control. For each gene, values for samples within each experiment were normalized to the corresponding 0.1% DMSO treatment value for that particular time point.

[3] = test system: BLIMP-1; assay: Gene expression (RT-PCR) in differentiated B cells; assay type: cell-based, human; conditions: Day 7 differentiated B cells, normalized to 0.1% DMSO; FIG. 3
Method: as §2, §3, §4, §5

[4] = test system: IRF-4; assay: Gene expression (RT-PCR) in differentiated B cells; assay type: cell-based, human; conditions: Day 7 differentiated B cells, normalized to 0.1% DMSO; FIG. 3
Method: as §2, §3, §4, §5

[5] = test system: IgJ; assay: Gene expression (RT-PCR) in differentiated B cells; assay type: cell-based, human; conditions: Day 7 differentiated B cells, normalized to 0.1% DMSO; FIG. 3
Method: as §2, §3, §4, §5

[6] = test system: XBP-1; assay: Gene expression (RT-PCR) in differentiated B cells; assay type: cell-based, human; conditions: Day 7 differentiated B cells, normalized to 0.1% DMSO; FIG. 3
Method: as §2, §3, §4, §5

[7] = test system: OBF-1; assay: Gene expression (RT-PCR) in differentiated B cells; assay type: cell-based, human; conditions: Day 7 differentiated B cells, normalized to 0.1% DMSO; FIG. 3
Method: as §2, §3, §4, §5

[8] = test system: IgG production; assay: Immunoglobulin assay (ELISA) of plasmablast culture supernatants; assay type: cell-based, human; conditions: during plasmablast differentiation; FIG. 5
Method: as §2
(§6) Cells were harvested and counted on the cell counter, an aliquot was removed for flow analysis, and the remaining cells were washed with phosphate buffered saline (PBS). Fresh B cell cocktail was prepared by adding 1 μg/ml of human transferrin to B cell medium (Iscove's medium with 10% PFBS, 1% P/S, and 5 μg/mL human insulin). […]
(§7) On Day 4 and Day 7 cells were harvested and counted on the cell counter. […]
(§8) Supernatants (see B Cell Differentiation Assay above) were harvested and analyzed by ELISA for IgG and IgM production (ZeptoMetrix Corp, Buffalo, N.Y.).

[9] = test system: IgM production; assay: as above; assay type: cell-based, human; conditions: during plasmablast differentiation; FIG. 4
Method: as §2, §6, §7, §8

[10] = test system: primary human B cells; assay: Cell viability analysis (Trypan blue live cell count) in B cell differentiation culture; assay type: cell-based; conditions: cell counts on Day 4 and Day 7 of the 7 day culture; FIG. 2
Method: as §2, §1, §7
To determine live cell count, B cells (see B Cell Differentiation Assay above) were stained with 0.4% Trypan blue (Gibco cat #15250) and live cells counted using the Countess automated cell counter (Invitrogen) in duplicate samples.

`O=C1CC[C@H](N2Cc3c(OCc4ccc(CN5CCOCC5=O)cc4)cccc3C2=O)C(=O)N1` [Compound I-S, (S)-3-(1-oxo-4-((4-((3-oxomorpholino)methyl)benzyl)oxy)isoindolin-2-yl)piperidine-2,6-dione] was tested, and the “percentage of CD20+CD38- activated B cells (ABC)” value [1] was “increased”, the “percentage of CD20-CD38+ plasmablasts (PB)” value [1] was “dose-dependently reduced” and the “expression of germinal center lineage B cell transcription factor BCL-6” value [2] was “did not decrease”. The “expression of plasma cell lineage transcription factor BLIMP-1” value [3] was “dose-dependently and significantly inhibited”, the “expression of plasma cell lineage transcription factor IRF-4” value [4] was “dose-dependently and significantly inhibited” and the “expression of plasma cell lineage transcription factor IgJ” value [5] was “dose-dependently and significantly inhibited”. For the same compound, the “expression of plasma cell lineage transcription factor XBP-1” value [6] was “dose-dependently and significantly inhibited”, the “expression of plasma cell lineage transcription factor OBF-1” value [7] was “dose-dependently and significantly inhibited” and the IgG production [8] was “significantly inhibited”. The IgM production [9] was “significantly inhibited” and the “B cell viability (live cell count)” value [10] was “reduce B cell viability”.
